Source: patent US8946426B2, “Substituted bicyclic heterocyclic compounds as gamma secretase modulators” (Janssen Pharmaceuticals, Inc., priority 2009, dated 2015)

How the values were obtained:
Aβ42 [1] = assay: Method 2: Aβ42 Alphalisa in supernatant of SKNBE2 cells carrying APP 695-wild type (Table 7c); type: cell-based; settings: Method 2, Alphalisa, overnight incubation
Method in brief: (§1)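 SKNBE2 cells expressing wild-type APP695 incubated overnight at 37° C with test compound, 10^4 cells/well. Supernatant Aβ42 (C-terminal JRF/cAβ42/26 with N-terminal JRF/AβN/25) and Aβtotal (JRF/AβN/25 with 4G8) quantified by AlphaLISA. IC50 from 4-parameter fit of percent of untreated control.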

Aβ42 [2] = assay: Method 1: Aβ42 sandwich ELISA in supernatant of SKNBE2 cells carrying APP 695-wild type (Tables 7a, 7b); type: cell-based
Method in brief: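 SKNBE2 cells expressing wild-type APP695 were exposed to compound for 18 hours. Secreted Aβ42 was quantified by sandwich ELISA with C-terminal-selective capture, biotinylated 3D6 detection and TMB read-out at 450 nm. IC50 came from 4-parameter fits of % inhibition or % of untreated control; WST-1 monitored toxicity.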

Aβtotal = assay: Method 2: Aβtotal Alphalisa in supernatant of SKNBE2 cells carrying APP 695-wild type (Table 7c); type: cell-based; settings: Method 2, Alphalisa, overnight incubation
Method in brief: as §1

[3] = Homo sapiens, SKNBE2, Table 7b, averaged IC50, non-linear regression of percentage of control vs log concentration, 4-parameter equation
[4] = Homo sapiens, Table 7a, SKNBE2 cells, compounds 18 h, XLfit 4-parameter fit of percent inhibition, top/bottom fixed to 100/0, hill slope 1
[5] = Table 7b, averaged IC50, non-linear regression of percentage of control vs log concentration, 4-parameter equation

COc1cc(Nc2cccc3c2nc(-c2ccc(F)cc2)n3C)ccc1-c1ocnc1C [Compound 12]
IC50 (Aβ42 [1]; Homo sapiens): 35 nM | IC50 (Aβ42 [2]; [3]): 21 nM | IC50 (Aβ42 [2]; [4]): 23 nM | IC50 (Aβtotal; Homo sapiens): 7.76 µM

COc1cc(Nc2cncc3c2nc(-c2ccc(F)cc2)n3C)ccc1-c1cnc(C)o1 [Compound 186]
IC50 (Aβ42 [1]): 41 nM | IC50 (Aβ42 [2]; [5]): 162 nM | IC50 (Aβtotal): > 10 µM

Cc1ncc(-c2ccc(Nc3nccc4c3nc(-c3ccc(F)cc3)n4C)cc2F)o1 [Compound 17]
IC50 (Aβ42 [1]; Homo sapiens): 166 nM | IC50 (Aβ42 [2]; [3]): > 10000 nM | IC50 (Aβtotal; Homo sapiens): > 10 µM

COc1cc(Nc2cc(C(F)(F)F)nn3cc(C)nc23)ccc1-c1cnc(C)o1 [Compound 195]
IC50 (Aβ42 [1]): 282 nM | IC50 (Aβ42 [2]; [5]): 195 nM | IC50 (Aβtotal): > 10 µM

Cc1ncoc1-c1ccc(Nc2cccc3c2nc(-c2ccc(F)cc2)n3C)nc1 [Compound 10]
IC50 (Aβ42 [1]; Homo sapiens): 1740 nM | IC50 (Aβ42 [2]; [3]): 355 nM | IC50 (Aβ42 [2]; [4]): 358 nM | melting point: 195.4 °C | IC50 (Aβtotal; Homo sapiens): > 10 µM

COc1cc(Nc2cccc3c2nc(CCC(F)(F)F)n3C)ccc1-c1ocnc1C [Compound 11]
IC50 (Aβ42 [1]; Homo sapiens): 363 nM | IC50 (Aβ42 [2]; [3]): 71 nM | IC50 (Aβ42 [2]; [4]): 72 nM | IC50 (Aβtotal; Homo sapiens): > 10 µM

COc1cc(Nc2nc(C(F)(F)F)cn3cc(C)nc23)ccc1-c1cnc(C)o1 [Compound 170]
IC50 (Aβ42 [1]): 7410 nM | IC50 (Aβ42 [2]; [5]): 3550 nM | IC50 (Aβtotal): > 10 µM

COc1cc(Nc2cccc3c2nc(-c2ccc(F)cc2)n3C)ccc1-c1cnc(C)o1 [Compound 16]
IC50 (Aβ42 [1]; Homo sapiens): 16 nM | IC50 (Aβ42 [2]; [3]): 9 nM | IC50 (Aβ42 [2]; [4]): 11 nM | melting point: 189 °C | IC50 (Aβtotal; Homo sapiens): 8.71 µM

Cc1ncc(-c2ccc(Nc3cccc4c3nc(-c3ccc(F)cc3)n4C(C)C)cn2)o1 [Compound 18]
IC50 (Aβ42 [1]; Homo sapiens): 20 nM | IC50 (Aβ42 [2]; [3]): 35 nM | melting point: 133.4 °C | IC50 (Aβtotal; Homo sapiens): 6.46 µM

COc1cccc(-c2nc3c(Nc4ccc(-c5cnc(C)o5)nc4)cc(F)cc3n2C)c1 [Compound 105]
IC50 (Aβ42 [1]): 14 nM | IC50 (Aβ42 [2]; [5]): 7 nM | IC50 (Aβtotal): > 10 µM
